Data from patent US11077090B2, “Compounds and compositions and uses thereof” (Sunovion Pharmaceuticals Inc., priority 2016, dated 2021).

Test system: compound-treated mice
Assay: Neuropharmacological assay (SmartCube): behavioral activity signature and minimal effective dose
Type: in vivo
Details: for minimal effective dose: Mus musculus, ip, read-out: Potency: minimal effective dose (MED); for AD: ADHD (probability of activity signature) / AG: analgesic (probability of activity signature) / AX: anxiolytic (probability of activity signature) / CE: cognitive enhancer (probability of activity signature) / DP: anti-depressant (probability of activity signature) / MS: mood stabilizer (probability of activity signature) / PS: anti-psychotic (probability of activity signature) / SD: sedative hypnotic (probability of activity signature) / UN: uncharacterized CNS activity (probability of activity signature): i.p. 15 min before test, most efficacious dose(s)
Summary of the method: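 Mice dosed i.p. 15 min before test, compound in N-methyl-2-pyrrolidone/PEG/propylene glycol, 3 doses; video-captured behavior matched to reference-drug signatures, giving per-class probabilities at most efficacious dose. MED from doses typically 0.3–30 mpk, defined as lowest dose with ≥50% total activity.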

[1] = MED = dose having 50% or more total activity

| Structure (SMILES) | minimal effective dose [1] | AD: ADHD (probability of activity signature) | AG: analgesic (probability of activity signature) | AX: anxiolytic (probability of activity signature) | CE: cognitive enhancer (probability of activity signature) | DP: anti-depressant (probability of activity signature) | MS: mood stabilizer (probability of activity signature) | PS: anti-psychotic (probability of activity signature) | SD: sedative hypnotic (probability of activity signature) | UN: uncharacterized CNS activity (probability of activity signature) | Potency: minimal effective dose (MED) [1] |
| --- | --- | --- | --- | --- | --- | --- | --- | --- | --- | --- | --- |
| Cc1ccc2c(c1C)[C@H](N)COC2 [Example 135] | < 3 mg/kg | + (LOQ ≤ + <5%) | ++ (5% ≤ ++ <25%) | +++ (25% ≤ +++ <50%) | ++ (5% ≤ ++ <25%) | ++ (5% ≤ ++ <25%) | + (LOQ ≤ + <5%) | ++ (5% ≤ ++ <25%) | ++ (5% ≤ ++ <25%) | +++ (25% ≤ +++ <50%) | – |
| Cc1ccc2c(c1C)[C@@H](N)COC2 [Example 136] | 3 to 10 mg/kg | + (LOQ ≤ + <5%) | ++ (5% ≤ ++ <25%) | ++ (5% ≤ ++ <25%) | ++ (5% ≤ ++ <25%) | ++ (5% ≤ ++ <25%) | + (LOQ ≤ + <5%) | ++ (5% ≤ ++ <25%) | + (LOQ ≤ + <5%) | +++ (25% ≤ +++ <50%) | – |
| CN[C@@H]1COCc2ccc(OC)cc21 [Example 139] | 3 to 10 mg/kg | + (LOQ ≤ + <5%) | ++ (5% ≤ ++ <25%) | ++ (5% ≤ ++ <25%) | ++ (5% ≤ ++ <25%) | ++ (5% ≤ ++ <25%) | + (LOQ ≤ + <5%) | ++ (5% ≤ ++ <25%) | + (LOQ ≤ + <5%) | +++ (25% ≤ +++ <50%) | – |
| CN[C@H]1COCc2ccc(OC)cc21 [Example 140] | 10 to 30 mg/kg | + (LOQ ≤ + <5%) | ++ (5% ≤ ++ <25%) | ++ (5% ≤ ++ <25%) | ++ (5% ≤ ++ <25%) | ++ (5% ≤ ++ <25%) | ++ (5% ≤ ++ <25%) | +++ (25% ≤ +++ <50%) | + (LOQ ≤ + <5%) | + (LOQ ≤ + <5%) | – |
| CN[C@@H]1COCc2ccc(C)cc21 [Example 141] | 3 to 10 mg/kg | + (LOQ ≤ + <5%) | ++ (5% ≤ ++ <25%) | +++ (25% ≤ +++ <50%) | ++ (5% ≤ ++ <25%) | ++ (5% ≤ ++ <25%) | ++ (5% ≤ ++ <25%) | ++ (5% ≤ ++ <25%) | + (LOQ ≤ + <5%) | +++ (25% ≤ +++ <50%) | – |
| CN[C@H]1COCc2ccc(C)cc21 [Example 142] | 3 to 10 mg/kg | + (LOQ ≤ + <5%) | ++ (5% ≤ ++ <25%) | ++ (5% ≤ ++ <25%) | ++ (5% ≤ ++ <25%) | ++ (5% ≤ ++ <25%) | + (LOQ ≤ + <5%) | + (LOQ ≤ + <5%) | + (LOQ ≤ + <5%) | ++++ (50% ≤ ++++) | – |
| CN[C@@H]1COCc2ccc(C)c(C)c21 [Example 143] | 3 to 10 mg/kg | + (LOQ ≤ + <5%) | +++ (25% ≤ +++ <50%) | ++ (5% ≤ ++ <25%) | ++ (5% ≤ ++ <25%) | ++ (5% ≤ ++ <25%) | + (LOQ ≤ + <5%) | + (LOQ ≤ + <5%) | ++ (5% ≤ ++ <25%) | ++ (5% ≤ ++ <25%) | – |
| CN[C@H]1COCc2ccc(C)c(C)c21 [Example 144] | 3 to 10 mg/kg | + (LOQ ≤ + <5%) | ++ (5% ≤ ++ <25%) | ++ (5% ≤ ++ <25%) | ++ (5% ≤ ++ <25%) | ++ (5% ≤ ++ <25%) | + (LOQ ≤ + <5%) | ++ (5% ≤ ++ <25%) | ++ (5% ≤ ++ <25%) | +++ (25% ≤ +++ <50%) | – |
| CN[C@@H]1COCc2cccc(Cl)c21 [Example 145] | – | + (LOQ ≤ + <5%) | ++ (5% ≤ ++ <25%) | ++ (5% ≤ ++ <25%) | ++ (5% ≤ ++ <25%) | + (LOQ ≤ + <5%) | + (LOQ ≤ + <5%) | + (LOQ ≤ + <5%) | + (LOQ ≤ + <5%) | +++ (25% ≤ +++ <50%) | C (>10 to ≤30 mpk) |
| CN[C@H]1COCc2cccc(Cl)c21 [Example 146] | 3 to 10 mg/kg | + (LOQ ≤ + <5%) | ++ (5% ≤ ++ <25%) | +++ (25% ≤ +++ <50%) | ++ (5% ≤ ++ <25%) | + (LOQ ≤ + <5%) | + (LOQ ≤ + <5%) | + (LOQ ≤ + <5%) | + (LOQ ≤ + <5%) | ++ (5% ≤ ++ <25%) | – |
| CN[C@@H]1COCc2ccc(Cl)c(Cl)c21 [Example 147] | 3 to 10 mg/kg | + (LOQ ≤ + <5%) | ++ (5% ≤ ++ <25%) | ++ (5% ≤ ++ <25%) | + (LOQ ≤ + <5%) | ++ (5% ≤ ++ <25%) | + (LOQ ≤ + <5%) | + (LOQ ≤ + <5%) | + (LOQ ≤ + <5%) | ++++ (50% ≤ ++++) | – |
| CN[C@H]1COCc2ccc(Cl)c(Cl)c21 [Example 148] | 3 to 10 mg/kg | + (LOQ ≤ + <5%) | ++ (5% ≤ ++ <25%) | ++ (5% ≤ ++ <25%) | ++ (5% ≤ ++ <25%) | ++ (5% ≤ ++ <25%) | ++ (5% ≤ ++ <25%) | ++ (5% ≤ ++ <25%) | ++ (5% ≤ ++ <25%) | +++ (25% ≤ +++ <50%) | – |
| CN[C@@H]1COCc2c(Cl)cccc21 [Example 149] | < 3 mg/kg | + (LOQ ≤ + <5%) | ++ (5% ≤ ++ <25%) | ++ (5% ≤ ++ <25%) | ++ (5% ≤ ++ <25%) | ++ (5% ≤ ++ <25%) | + (LOQ ≤ + <5%) | +++ (25% ≤ +++ <50%) | ++ (5% ≤ ++ <25%) | +++ (25% ≤ +++ <50%) | – |
